Test results as given in a melting point compilation (Tetko et al.).

Conditions: a range is the spread between reports

Row | Compound | melting point [°C]
1 | CC1CO1 (stereo not given) | -112
2 | C=C=C(C)C | -114
3 | C/C=C/C=O | -76.5 to -76
4 | ClCCCCCl | -38 to -37
5 | CCCCCI | -86 to -85.6
6 | C[Si](C)(C)[Si](C)(C)C | 12 to 13.5
7 | O=C=Nc1ccc([N+](=O)[O-])cc1 | 57 to 58
8 | NC(=S)Nc1ccccc1 | 149 to 154
9 | OC/C=C\CO | 4 to 7
10 | Cl[SiH](Cl)Cl | -127 to -126
11 | CCN(C(C)C)C(C)C | -50 to -46
12 | Cc1cc(C)cc([N+](=O)[O-])c1 | 71 to 75
13 | O=C(OC(=O)C(F)(F)F)C(F)(F)F | -65 to -63
14 | CCCCCCCBr | -58 to -56
15 | CCc1cc(C)cc(CC)c1 | -74.1 to -74
16 | Oc1ccccc1Cl | 7 to 9.8
17 | Ic1cccc(I)c1 | 36 to 40.4
18 | O=C(O)C(Br)(Br)Br | 132
19 | O=[N+]([O-])c1cccc([N+](=O)[O-])c1Cl | 86 to 88
20 | CCC(N)=O | 78 to 81.3
21 | Nc1ccc([N+](=O)[O-])cn1 | 187 to 188
22 | Cn1nnnc1S | 122 to 127

Row | Compound | melting point [°C]
23 | CCOCOCC | -66.5 to -66
24 | CC12CCC3C(CCC4CC(OCc5ccccc5)CCC43C)C1CCC2=O (stereo not given) | 216 to 220
25 | CI | -67 to -64
26 | COc1ccc(OC)c([N+](=O)[O-])c1 | 71 to 72.5
27 | CCCC(C)(C)C | -124
28 | FC(F)(F)c1ccccc1Cl | -7.4 to -6
29 | O=[N+]([O-])c1ccccc1-c1ccccc1 | 37 to 37.2
30 | O=c1[nH]c(=O)c2nccnc2[nH]1 | 348
31 | Cc1cc(N)ccc1Cl | 83.5 to 84
32 | Clc1ccccc1 | -46 to -45
33 | CON(C)C(=O)Nc1ccc(Cl)c(Cl)c1 | 93 to 93.5
34 | Oc1c(F)c(F)c(F)c(F)c1F | 32.8 to 35
35 | CCCCCCCCCCCCCCCC(=O)Cl | 11 to 12
36 | C=CCC1(C(C)CCC)C(=O)NC(=O)NC1=O (stereo not given) | 95 to 100
37 | C=C(C)CCCC | -103
38 | COc1cccc(OC)c1O | 54 to 56.5
39 | C=CCCCCCCCCCCCCC | -4 to -2.8
40 | CS(=O)(=O)OCCCCOS(C)(=O)=O | 116
41 | O=P(c1ccccc1)(c1ccccc1)c1ccccc1 | 156
42 | CC1CNCC(C)O1 (stereo not given) | -88 to -85
43 | CCCCCCCCCCCCCCCCCCCCCCCCCCC | 59 to 59.5
44 | O=Cc1ccc(C(F)(F)F)cc1 | 1.5 to 2

The next lines start with the values.

Row | melting point [°C] | Compound
45 | 142 to 143 | CCCc1ccc(C(=O)O)cc1
46 | 89 to 92.5 | CN(C)c1ccc(C(=O)c2ccccc2)cc1
47 | 35 to 39 | O=C(C=Cc1ccccc1)OCc1ccccc1
48 | 106 to 107 | ClC1c2ccccc2CCc2ccccc21
49 | 70 to 71.2 | O=S(c1ccccc1)c1ccccc1
50 | 34 to 34.5 | c1ccc2c(c1)CCc1ccccc1-2
51 | 197 to 200 | O=C1c2ccccc2C(=O)c2c(O)ccc(O)c21
52 | 161 to 163 | CC(C)(C)c1ccc(O)c(N)c1
53 | 270 to 271 | O=C1OC(=O)c2cccc3cccc1c23
54 | 107 to 110 | CC(=O)c1ccc(O)cc1
55 | 93.5 to 94 | Cc1cc(C)c(C)c(O)c1
56 | 74 to 76 | COc1cc(C=CCO)ccc1O
57 | 250 to 251 | O=C1CC(c2ccc(O)cc2)Oc2cc(O)cc(O)c21 (stereo not given)
58 | 166 to 167 | CCn1ccc(NS(=O)(=O)c2ccc(N)cc2)nc1=O
59 | 73 to 76 | CC(=O)c1ccc(Cl)c(Cl)c1
60 | 112 to 114 | Brc1ccc2c(c1)Cc1ccccc1-2
61 | 64 to 64.5 | CC(=O)Oc1ccccc1OC(C)=O
62 | 144 to 146 | CC(=O)c1ccc(O)cc1O
63 | 94.5 to 95 | O=C(C(=O)c1ccccc1)c1ccccc1
64 | 96 to 99 | O=C(C=Cc1ccccc1)c1ccc(Cl)cc1
65 | 46 to 50 | COC(=O)c1cc(Cl)ccc1O
